PubChem BioAssay (NCI)
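Tested at 5 concentrations; 48 h exposure; 96-well plates; endpoints linearly interpolated, else capped at highest concentration. Here, GI50 denotes the concentration required for 50% inhibition of growth. TGI is the concentration that stops growth completely.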

Key:
Assay in all cases: growth of human tumour cells (NCI), 48 h
CCRF-CEM leukemia = tested on: CCRF-CEM leukemia
DU-145 prostate = tested on: DU-145 prostate
EKVX NSCLC = tested on: EKVX NSCLC
HCT-116 colon = tested on: HCT-116 colon
HOP-92 NSCLC = tested on: HOP-92 NSCLC
HT29 colon = tested on: HT29 colon
K-562 leukemia = tested on: K-562 leukemia
SK-MEL-5 melanoma = tested on: SK-MEL-5 melanoma
U251 CNS = tested on: U251 CNS
UACC-62 melanoma = tested on: UACC-62 melanoma

Compound: CC1(C)[C@@H](O[C@@H]2OC[C@@H](O[C@@H]3O[C@H](CO)[C@@H](O)[C@H](O)[C@H]3O[C@@H]3OC[C@@H](O)[C@H](O)[C@H]3O)[C@H](O)[C@H]2O[C@@H]2O[C@H](CO)[C@@H](O)[C@H](O)[C@H]2O)CC[C@]2(C)[C@H]3CC[C@]45OC[C@@]6(CC[C@](C)(C=O)C[C@H]64)[C@H](O)C[C@@]5(C)[C@]3(C)CC[C@@H]12
- GI50 (CCRF-CEM leukemia): 1.02 µM
- TGI (CCRF-CEM leukemia): 3.13 µM
- GI50 (DU-145 prostate): 1.09 µM
- TGI (DU-145 prostate): 2.33 µM
- GI50 (EKVX NSCLC): 0.945 µM
- TGI (EKVX NSCLC): 1.96 µM
- GI50 (HCT-116 colon): 0.898 µM
- TGI (HCT-116 colon): 1.91 µM
- GI50 (HOP-92 NSCLC): 0.704 µM
- TGI (HOP-92 NSCLC): 1.54 µM
- GI50 (HT29 colon): 1.01 µM
- TGI (HT29 colon): 2.06 µM
- GI50 (K-562 leukemia): 1.81 µM
- TGI (K-562 leukemia): 5.51 µM
- GI50 (SK-MEL-5 melanoma): 2.8 µM
- TGI (SK-MEL-5 melanoma): 5.36 µM
- GI50 (U251 CNS): 0.99 µM
- TGI (U251 CNS): 2.01 µM
- GI50 (UACC-62 melanoma): 0.909 µM
- TGI (UACC-62 melanoma): 1.81 µM

Compound: Cc1cccc2c(=O)c3c(sc12)c(NCCNCCO)nc1ccccc13
- GI50 (CCRF-CEM leukemia): 1.85 µM
- TGI (CCRF-CEM leukemia): 3.73 µM
- GI50 (DU-145 prostate): 1.68 µM
- TGI (DU-145 prostate): 3.12 µM
- GI50 (EKVX NSCLC): 1.5 µM
- TGI (EKVX NSCLC): 2.92 µM
- GI50 (HCT-116 colon): 1.35 µM
- TGI (HCT-116 colon): 2.72 µM
- GI50 (HOP-92 NSCLC): 1.17 µM
- TGI (HOP-92 NSCLC): 3.05 µM
- GI50 (HT29 colon): 1.4 µM
- TGI (HT29 colon): 3.13 µM
- GI50 (SK-MEL-5 melanoma): 1.65 µM
- TGI (SK-MEL-5 melanoma): 3.08 µM
- GI50 (U251 CNS): 1.56 µM
- TGI (U251 CNS): 3.09 µM
- GI50 (UACC-62 melanoma): 1.63 µM
- TGI (UACC-62 melanoma): 3.07 µM

Compound: Oc1[nH]c2ccc(Cl)cc2c1/C=c1/ccc2c(c1)N=C(c1ccc(F)cc1)N=2
- GI50 (CCRF-CEM leukemia): 2.07 µM
- TGI (CCRF-CEM leukemia): 4.93 µM
- GI50 (DU-145 prostate): 2.53 µM
- TGI (DU-145 prostate): 5.06 µM
- GI50 (EKVX NSCLC): 3.37 µM
- TGI (EKVX NSCLC): 15.9 µM
- GI50 (HCT-116 colon): 1.49 µM
- TGI (HCT-116 colon): 2.81 µM
- GI50 (HOP-92 NSCLC): 11.7 µM
- TGI (HOP-92 NSCLC): 26.9 µM
- GI50 (HT29 colon): 1.93 µM
- TGI (HT29 colon): 3.5 µM
- GI50 (K-562 leukemia): 2.11 µM
- TGI (K-562 leukemia): 4.48 µM
- GI50 (U251 CNS): 1.81 µM
- TGI (U251 CNS): 3.5 µM
- GI50 (UACC-62 melanoma): 2.5 µM
- TGI (UACC-62 melanoma): 8.06 µM

Compound: CC1OC(OC2C(O[C@H]3CC[C@@]4(C)C(=CC[C@H]5[C@@H]6C[C@@H]7O[C@]8(CC[C@H](C)CN8)[C@@H](C)[C@@H]7[C@@]6(C)CC[C@@H]54)C3)OC(CO)C(O)C2OC2OC(CO)C(O)C(O)C2O)C(O)C(O)C1O (some centres undefined)
- TGI (CCRF-CEM leukemia): 39.3 µM
- TGI (DU-145 prostate): 33.6 µM
- TGI (EKVX NSCLC): 32.3 µM
- TGI (HCT-116 colon): 39.9 µM
- TGI (HOP-92 NSCLC): 35.5 µM
- TGI (HT29 colon): 31.6 µM
- TGI (SK-MEL-5 melanoma): 33.6 µM
- TGI (U251 CNS): > 100 µM
- TGI (UACC-62 melanoma): 32.1 µM

Compound: COc1cc2c3c(n(CCCI)c(=O)c2cc1OC)-c1cc2c(cc1C3=O)OCO2
- GI50 (CCRF-CEM leukemia): 0.873 µM
- TGI (CCRF-CEM leukemia): > 100 µM
- GI50 (DU-145 prostate): 2.28 µM
- TGI (DU-145 prostate): > 100 µM
- GI50 (HCT-116 colon): 2.6 µM
- TGI (HCT-116 colon): > 100 µM
- GI50 (HOP-92 NSCLC): > 100 µM
- TGI (HOP-92 NSCLC): > 100 µM
- GI50 (HT29 colon): 5.46 µM
- TGI (HT29 colon): > 100 µM
- GI50 (K-562 leukemia): 2.27 µM
- TGI (K-562 leukemia): > 100 µM
- GI50 (SK-MEL-5 melanoma): 1.81 µM
- TGI (SK-MEL-5 melanoma): 8.5 µM
- GI50 (U251 CNS): 1.21 µM
- TGI (U251 CNS): 17.5 µM
- GI50 (UACC-62 melanoma): 0.202 µM
- TGI (UACC-62 melanoma): 1.91 µM

Compound: Cc1occc1C(=S)Nc1ccc(Cl)c(C(=O)OC(C)C2CC2)c1 (centres undefined)
- TGI (CCRF-CEM leukemia): > 100 µM
- TGI (DU-145 prostate): > 100 µM
- TGI (EKVX NSCLC): 54.9 µM
- TGI (HCT-116 colon): > 100 µM
- TGI (HOP-92 NSCLC): 51.5 µM
- TGI (HT29 colon): 49 µM
- TGI (SK-MEL-5 melanoma): 31.8 µM
- TGI (U251 CNS): 70.5 µM
- TGI (UACC-62 melanoma): 71.1 µM

Compound: CCC1CCc2nc3sc(C(=O)Nc4cccc(F)c4)c(N)c3cc2C1 (centres undefined)
- GI50 (CCRF-CEM leukemia): 1.79 µM
- TGI (CCRF-CEM leukemia): > 100 µM
- GI50 (DU-145 prostate): > 100 µM
- TGI (DU-145 prostate): > 100 µM
- GI50 (HCT-116 colon): 2.25 µM
- TGI (HCT-116 colon): > 100 µM
- GI50 (HOP-92 NSCLC): > 100 µM
- TGI (HOP-92 NSCLC): > 100 µM
- GI50 (SK-MEL-5 melanoma): 0.386 µM
- TGI (SK-MEL-5 melanoma): > 100 µM
- GI50 (U251 CNS): > 100 µM
- TGI (U251 CNS): > 100 µM
- GI50 (UACC-62 melanoma): 0.376 µM
- TGI (UACC-62 melanoma): > 100 µM

Compound: C[C@@H](CO)[C@@H]1CCC=C2CC[C@]3(C)[C@H](CC[C@@H]4[C@@]5(C)CCCNC(C)(C)[C@@H]5CC[C@]43C)[C@H]21
- GI50 (CCRF-CEM leukemia): 3.08 µM
- TGI (CCRF-CEM leukemia): 13.9 µM
- GI50 (DU-145 prostate): 3.36 µM
- TGI (DU-145 prostate): 11.3 µM
- GI50 (EKVX NSCLC): 4.18 µM
- TGI (EKVX NSCLC): 17.3 µM
- GI50 (HOP-92 NSCLC): 1.87 µM
- TGI (HOP-92 NSCLC): 8.71 µM
- GI50 (HT29 colon): 1.85 µM
- TGI (HT29 colon): 4.49 µM
- GI50 (K-562 leukemia): 2.01 µM
- TGI (K-562 leukemia): 6.73 µM
- GI50 (SK-MEL-5 melanoma): 1.77 µM
- TGI (SK-MEL-5 melanoma): 3.18 µM
- GI50 (U251 CNS): 1.84 µM
- TGI (U251 CNS): 3.46 µM
- GI50 (UACC-62 melanoma): 1.73 µM
- TGI (UACC-62 melanoma): 3.18 µM

Compound: CCCCCCCCCc1cccc(N2C(N)=NC(N)=NC2(C)C)c1
- TGI (CCRF-CEM leukemia): > 100 µM
- TGI (DU-145 prostate): 8.4 µM
- TGI (EKVX NSCLC): 10.5 µM
- TGI (HCT-116 colon): 1.15 µM
- TGI (HOP-92 NSCLC): > 100 µM
- TGI (HT29 colon): 1.33 µM
- TGI (U251 CNS): 0.62 µM
- TGI (UACC-62 melanoma): 4.07 µM

Compound: CN1CCN(c2ccc3nc(-c4ccc5nc(-c6ccc(OCCC(C)(C)C)cc6)[nH]c5c4)[nH]c3c2)CC1
- GI50 (CCRF-CEM leukemia): 2.72 µM
- TGI (CCRF-CEM leukemia): 7.34 µM
- GI50 (DU-145 prostate): 1.83 µM
- TGI (DU-145 prostate): 3.4 µM
- GI50 (EKVX NSCLC): 4.67 µM
- TGI (EKVX NSCLC): 21.4 µM
- GI50 (HOP-92 NSCLC): 14.3 µM
- TGI (HOP-92 NSCLC): 33.2 µM
- GI50 (HT29 colon): 1.78 µM
- TGI (HT29 colon): 4.07 µM
- GI50 (SK-MEL-5 melanoma): 12.7 µM
- TGI (SK-MEL-5 melanoma): 27.6 µM
- GI50 (U251 CNS): 2.16 µM
- TGI (U251 CNS): 3.81 µM
- GI50 (UACC-62 melanoma): 17.3 µM
- TGI (UACC-62 melanoma): 40.1 µM

Compound: COc1ccc(Nc2c3ccccc3nc3ccccc23)cc1
- GI50 (CCRF-CEM leukemia): 1.17 µM
- TGI (CCRF-CEM leukemia): 10.7 µM
- GI50 (DU-145 prostate): 2.43 µM
- TGI (DU-145 prostate): 12.3 µM
- GI50 (HCT-116 colon): 0.576 µM
- TGI (HCT-116 colon): 11.5 µM
- GI50 (HOP-92 NSCLC): 0.259 µM
- TGI (HOP-92 NSCLC): 2.93 µM
- GI50 (HT29 colon): 0.454 µM
- TGI (HT29 colon): 2.71 µM
- GI50 (K-562 leukemia): 0.583 µM
- TGI (K-562 leukemia): 7.19 µM
- GI50 (SK-MEL-5 melanoma): 1.1 µM
- TGI (SK-MEL-5 melanoma): 4.2 µM
- GI50 (U251 CNS): 2.55 µM
- TGI (U251 CNS): 14.1 µM
